Test results: PubChem BioAssay (NCI)
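Values below derive from 48-hour exposures of cells grown in 96-well plates, with endpoints linearly interpolated between the two concentrations bracketing the appropriate inhibition level. At the TGI there is no net growth.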

What was measured:
Assay in all cases: DTP human tumour cell line panel, 48 h
PC-3 prostate = tested on: PC-3 prostate
HT29 colon = tested on: HT29 colon
HCT-116 colon = tested on: HCT-116 colon
SF-539 CNS = tested on: SF-539 CNS
HOP-62 NSCLC = tested on: HOP-62 NSCLC
SK-MEL-28 melanoma = tested on: SK-MEL-28 melanoma
NCI-H23 lung = tested on: NCI-H23 lung
HOP-92 NSCLC = tested on: HOP-92 NSCLC
UACC-257 melanoma = tested on: UACC-257 melanoma
MDA-MB-231 breast = tested on: MDA-MB-231 breast
HS 578T breast = tested on: HS 578T breast
UO-31 renal = tested on: UO-31 renal
MDA-N = tested on: MDA-N
IGROV1 ovarian = tested on: IGROV1 ovarian
SNB-19 CNS = tested on: SNB-19 CNS

Structure (SMILES)	TGI (PC-3 prostate) [µM]	TGI (HT29 colon) [µM]	TGI (HCT-116 colon) [µM]	TGI (SF-539 CNS) [µM]	TGI (HOP-62 NSCLC) [µM]	TGI (SK-MEL-28 melanoma) [µM]	TGI (NCI-H23 lung) [µM]	TGI (HOP-92 NSCLC) [µM]	TGI (UACC-257 melanoma) [µM]	TGI (MDA-MB-231 breast) [µM]	TGI (HS 578T breast) [µM]	TGI (UO-31 renal) [µM]	TGI (MDA-N) [µM]	TGI (IGROV1 ovarian) [µM]	TGI (SNB-19 CNS) [µM]
CCOC(=O)c1nc2ccccc2nc1NCc1cc(OC)c(OC)c(OC)c1	> 100	> 100	> 100	> 100	> 100	> 100	> 100	> 100	> 100	> 100	> 100	> 100	51.8	> 100	–
CC(C)(C)c1cc(C2=NNC(c3ccccc3)C2)cc(C(C)(C)C)c1O (stereo not drawn)	27.7	50.3	28.3	44.7	33.3	31.5	33.7	31.2	27.5	27.5	55.6	30.3	28.5	30.2	36.4
Cc1cn(C2CC(O)C(COC(=O)NCCC(F)(F)C(F)(F)C(F)(F)C(F)(F)F)O2)c(=O)[nH]c1=O (stereo not drawn)	> 100	> 100	> 100	> 100	> 100	> 100	> 100	> 100	> 100	> 100	> 100	> 100	> 100	> 100	> 100
CCOC(=O)Cn1c(=O)c2nc(SC)sc2n(CC)c1=S	> 100	> 100	> 100	> 100	> 100	> 100	> 100	> 100	> 100	> 100	95.8	28.8	> 100	> 100	> 100
Nc1cccc(/C=C/C(=O)N2CCN(CCOC(c3ccccc3)c3ccccc3)CC2)c1	28.9	21.6	28.9	31	32.4	28.9	35.5	26.2	31.5	29.1	45.6	30.5	35.9	33.6	32.4
CCOC(=O)c1cn2c(n1)sc1c(Cl)c(Cl)ccc12	> 100	> 45.6	33	21.4	> 51.3	> 100	> 100	> 100	> 100	> 100	28.6	> 100	3.83	> 100	98.9
COc1ccc(CC(=O)N2CCC3(C)CC(=O)CC=C23)cc1OC (stereo not drawn)	> 100	> 100	> 100	> 100	> 100	> 100	> 100	> 100	–	> 100	> 100	> 100	> 100	> 100	> 100
Cc1cccc(CP(Cc2cccc(C)c2)CC2(Cp3c4ccccc4c4ccccc43)COC2)c1	> 100	> 100	> 100	> 100	> 100	> 100	> 100	> 100	> 100	> 37	> 100	> 100	> 100	> 100	> 31.6
Cc1cccc(N(C(=O)Nc2ccc(Cl)c(Cl)c2)C2=NCC(C)S2)c1 (stereo not drawn)	> 100	> 100	> 100	> 100	> 100	> 100	> 100	> 100	> 100	> 100	> 100	> 100	> 100	> 100	> 100
COc1ccc(C(=O)c2sc(Nc3ccc(Cl)cc3)nc2N)cc1	> 68.3	> 64.9	> 34.4	66.2	38.6	> 100	> 51.6	> 63.5	> 90.2	> 92.4	47.4	97.7	> 22.2	> 53.9	> 69.9
Cc1ccc(N(C(=O)Nc2ccccc2)C2=NCC(C)S2)cc1C (stereo not drawn)	> 100	41.9	46.5	48.5	> 100	31.2	42.5	43.3	> 10	45	77.4	80.7	31.9	89.8	> 100
CC(=O)OCC1OC(OC2CC3C(C)(C)C(OC(C)=O)CC[C@]3(C)C3CCC45CC4(CCC5[C@@H](C)C[C@H](O)C(O)C(C)(C)O)[C@]23C)C(O)C(O)C1O (stereo partly drawn)	> 10	> 10	> 10	> 10	> 10	> 10	> 10	> 10	> 10	> 10	> 10	> 10	> 10	> 10	> 10
O=S(=O)(O)C(=Nc1cccc(Cc2ccccc2)c1)Nc1cccc(Cc2ccccc2)c1	35.1	34.5	28.2	34.7	> 100	38.8	31.9	28.6	48.7	38.2	45.5	29.5	47.2	31.3	48.5
CC(C)(C)OC(=O)N1CCC(C(=O)O)CC1	> 100	> 100	> 100	> 100	> 100	> 100	> 100	> 100	> 100	> 100	> 100	> 100	> 100	> 100	> 100
COc1cc2c(cc1OC)C(=O)/C(=C/c1ccc(Cl)cc1)CC2	> 10	> 10	> 10	> 10	> 10	> 10	> 10	> 10	> 10	> 10	> 10	> 10	> 10	> 10	> 10
C=CCOC(=O)NC1C(OC(C)[C@@H](NC(=O)OCc2ccccc2)C(=O)OC(C)(C)C)OC(COC(C)=O)C(OC(C)=O)C1OC(C)=O (stereo partly drawn)	> 100	> 100	> 100	> 100	> 100	> 100	> 100	> 100	> 100	96.2	> 100	47.3	> 100	> 100	> 100
COc1cc(-c2cc(-c3ccccc3)nc(-c3c(OC)ccc4c(C)cc(=O)oc34)c2)cc(OC)c1OC	> 100	> 100	> 100	> 100	> 100	–	> 100	> 100	> 100	> 100	> 100	> 100	> 100	> 100	> 100
CN(C)CCCNc1ccc([N+](=O)[O-])c2nc3ccccc3c(N)c12	1.69	1.72	1.33	1.82	> 10	> 10	2.78	5.08	> 10	2.53	> 10	2.97	2.18	6.47	3.23
CCCCCCC(=O)O[C@H]1CC[C@H]2[C@@H]3CCC4C/C(=N/NC(=O)c5cccc6c(=O)c7ccccc7[nH]c56)C=C(C)[C@]4(C)[C@H]3CC[C@]12C (stereo partly drawn)	> 25	> 25	> 25	> 25	> 25	–	> 25	> 25	> 25	> 25	> 25	> 25	> 25	> 25	> 25
CC(C)OCC1CC(CC(=O)Nc2nncs2)C(=O)O1 (stereo not drawn)	> 100	> 100	> 100	> 100	> 100	> 100	> 100	> 100	> 100	> 100	> 100	> 100	> 100	> 100	> 100
O=c1c2nc3ccccc3c(=O)n2ncn1-c1ccccc1Cl	> 100	> 100	> 100	> 100	> 100	> 100	> 100	> 100	> 100	> 100	> 100	> 100	> 100	> 100	> 100
CCN(CC)/C(Sc1ccccc1)=C(\C(Cl)=C(Cl)Cl)[N+](=O)[O-]	33.3	45.8	32.8	33	42.4	32	36.1	36.4	44.5	50.5	81	28.9	40.2	43.7	49.9
C[C@H](NC(=O)c1ccc(CNC(=O)/C=C/c2cccc(Oc3ccccc3)c2)cc1)c1ccccc1	> 100	> 100	> 100	67.8	> 100	> 100	> 100	> 100	> 100	> 100	> 100	> 100	> 100	> 100	> 100
S=C1N(/N=C/c2c3ccccc3cc3ccccc23)C(=Nc2ccccc2)C(=Nc2ccccc2)N1c1ccccc1	> 100	> 100	> 100	> 100	> 100	> 100	> 100	> 100	> 100	> 100	> 100	> 100	> 100	> 100	> 100
CC(=O)Oc1ccc(-c2cc3ccccc3oc2=O)cc1	> 100	> 100	> 100	> 100	> 100	> 100	> 100	> 100	> 100	> 100	> 100	> 100	> 100	–	> 100
CC(C)=CCC/C(=C/CC/C(=C\CCc1ccoc1)C(=O)O)C(=O)O	> 100	> 100	> 100	> 100	> 100	> 100	> 100	> 100	> 100	> 100	> 100	> 100	> 100	> 100	> 100
C=CCc1cccc2cc(C(=O)Nc3ccccc3)c(=N)oc12	> 100	> 100	> 100	> 100	> 100	> 100	> 100	> 100	> 100	> 100	> 100	–	> 100	> 100	> 100
Cn1c(O)c(C=Nc2ccccc2[N+](=O)[O-])c(=O)n(C)c1=O	> 100	> 100	> 100	> 100	> 100	–	> 100	> 100	> 100	> 100	> 100	> 100	> 100	> 100	> 100
Brc1cc(CCOC2CCCCO2)c(-c2sccc2CCOC2CCCCO2)s1 (stereo not drawn)	> 100	> 100	> 100	> 100	> 100	> 100	> 100	> 100	> 100	> 100	> 95.7	> 42.1	> 100	> 100	> 100
